Measured values taken from publication PMC6359144 (International Journal of Molecular Sciences, 2019).

Key:
[1] = tested on: KB-V1^Vbl cervix carcinoma cells; assay: MTT assay, KB-V1^Vbl cervix carcinoma cells; assay type: cell-based; settings: Homo sapiens, read-out: IC50 KB-V1^Vbl (72 h)
Procedure: HT-29 (ACC-299), HCT-116 (ACC-581) and DLD-1 (ACC-278) colon carcinoma, MCF-7 (ACC-115) breast carcinoma, KB-V1 (ACC-149), 518A2 (Department of Radiotherapy and Radiobiology, University Hospital Vienna) melanoma and Ea.Hy926 (ATCC no. CRL-2922) HUVEC derived endothelial hybrid cells line were grown in Dulbecco’s Modified Eagle Medium (DMEM; Biochrom), high glucose supplemented with 10% (v/v) fetal bovine serum (FBS; Biochrom.) and 1% (v/v) Antibiotic-Antimycotic solution (anti-anti; Thermo Scientific). HDFa human dermal fibroblasts (ATCC: PCS-201-012™) were grown in DMEM supplemented with 10% FBS, 1% anti-anti and 2 mM glutamine. The cells were incubated at 37 °C, 5% CO2, 95% humidified atmosphere. By repeated addition of topotecan or vinblastine at the maximum tolerated dose to the cell medium of MCF-7 and KB-V1 cells, the cells were rendered multidrug-resistant, indicated as MCF-7^Topo and KB-V1^Vbl, respectively. They were serially passaged following trypsinization by using 0.05% trypsin/0.02% EDTA (Biochrom). Mycoplasma contamination was routinely monitored, and only mycoplasma–free cultures were used.
MTT [3-(4,5-dimethylthiazol-2-yl)-2,5-diphenyltetrazolium bromide] (ABCR) was used to determine the cytotoxicity of test compounds as previously described. Briefly, HDFa human dermal fibroblasts and Ea.Hy926 endothelial hybrid cells (both 1 × 10^5 cells/mL, 100 µL/well), 518A2 melanoma, KB-V1^Vbl cervix carcinoma, MCF-7^Topo breast carcinoma, HT-29, DLD-1 and HCT-116 colon carcinoma (all 5 × 10^4 cells/mL, 100 µL/well) were grown in 96-well culture plates for 24 h. Then, various concentrations of the test compounds were added and the cells were incubated for 24-72 h at 37 °C. After adding 12.5 µL of a 0.5% MTT solution in PBS (final concentration 0.05%) to cell medium, microplates were incubated for 2 h and subsequently swiftly turned to discard the medium. The precipitate of formazan crystals was then dissolved in a 10% solution of SDS in DMSO containing 0.6% acetic acid. To ensure complete dissolution of formazan, microplates were incubated for at least 4 h at 37 °C. Finally, the absorbance at λ = 570 nm (formazan) and 630 nm (background) was measured using a microplate reader (Tecan F200). All experiments were carried out in quadruplicate and the percentage of viable cells was calculated as the mean ± SD with controls set to 100%. Selected graphs of MTT assays can be found in the Supporting Information (Figure S8).

[2] = molecular target: T1, recombinant human HDAC1 (Homo sapiens, UniProt Q13547); assay: HDAC1 inhibitor screening assay (fluorometric); assay type: biochemical; settings: recombinant human HDAC1, mean ± SD of two experiments; read-out: HDAC inhibition IC50, HDAC1
T1 construct: purchased Cayman Chemicals
T1 sequence (Q13547 whole entry): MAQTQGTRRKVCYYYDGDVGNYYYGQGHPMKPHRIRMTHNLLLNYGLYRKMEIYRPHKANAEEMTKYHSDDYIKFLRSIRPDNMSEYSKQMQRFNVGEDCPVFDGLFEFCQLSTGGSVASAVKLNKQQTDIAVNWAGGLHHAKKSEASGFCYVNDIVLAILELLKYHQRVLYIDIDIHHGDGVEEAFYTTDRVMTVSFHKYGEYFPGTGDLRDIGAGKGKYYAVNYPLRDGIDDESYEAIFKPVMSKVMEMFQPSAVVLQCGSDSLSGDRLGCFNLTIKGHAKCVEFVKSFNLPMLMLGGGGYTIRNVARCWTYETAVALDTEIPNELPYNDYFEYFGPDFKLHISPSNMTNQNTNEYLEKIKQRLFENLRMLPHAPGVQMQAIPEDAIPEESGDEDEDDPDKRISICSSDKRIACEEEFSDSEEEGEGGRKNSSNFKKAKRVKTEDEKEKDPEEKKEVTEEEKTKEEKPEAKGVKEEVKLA
Procedure: (§1) The HDAC inhibitory potential of the novel compounds was determined by utilizing the deacetylase activity of recombinant human HDAC1 (HDAC1 Inhibitor Screening Assay Kit; Cayman Chemicals) or HDAC6 (HDAC6 Inhibitor Screening Kit (Fluorometric); Biovision) towards the corresponding synthetic acetylated-peptide substrates resulting in the release of a fluorescent product. The assays were performed according to manufacturer’s description of the in commercially available assay kits. […] The IC50 values were derived from dose-response curves and are expressed as the means ± SD of two independent experiments.

[3] = molecular target: T2, recombinant human HDAC6 (Homo sapiens, UniProt Q9UBN7); assay: HDAC6 inhibitor screening assay (fluorometric); assay type: biochemical; settings: recombinant human HDAC6, mean ± SD of two experiments; read-out: HDAC inhibition IC50, HDAC6
T2 construct: purchased Biovision
T2 sequence (Q9UBN7 1-1215): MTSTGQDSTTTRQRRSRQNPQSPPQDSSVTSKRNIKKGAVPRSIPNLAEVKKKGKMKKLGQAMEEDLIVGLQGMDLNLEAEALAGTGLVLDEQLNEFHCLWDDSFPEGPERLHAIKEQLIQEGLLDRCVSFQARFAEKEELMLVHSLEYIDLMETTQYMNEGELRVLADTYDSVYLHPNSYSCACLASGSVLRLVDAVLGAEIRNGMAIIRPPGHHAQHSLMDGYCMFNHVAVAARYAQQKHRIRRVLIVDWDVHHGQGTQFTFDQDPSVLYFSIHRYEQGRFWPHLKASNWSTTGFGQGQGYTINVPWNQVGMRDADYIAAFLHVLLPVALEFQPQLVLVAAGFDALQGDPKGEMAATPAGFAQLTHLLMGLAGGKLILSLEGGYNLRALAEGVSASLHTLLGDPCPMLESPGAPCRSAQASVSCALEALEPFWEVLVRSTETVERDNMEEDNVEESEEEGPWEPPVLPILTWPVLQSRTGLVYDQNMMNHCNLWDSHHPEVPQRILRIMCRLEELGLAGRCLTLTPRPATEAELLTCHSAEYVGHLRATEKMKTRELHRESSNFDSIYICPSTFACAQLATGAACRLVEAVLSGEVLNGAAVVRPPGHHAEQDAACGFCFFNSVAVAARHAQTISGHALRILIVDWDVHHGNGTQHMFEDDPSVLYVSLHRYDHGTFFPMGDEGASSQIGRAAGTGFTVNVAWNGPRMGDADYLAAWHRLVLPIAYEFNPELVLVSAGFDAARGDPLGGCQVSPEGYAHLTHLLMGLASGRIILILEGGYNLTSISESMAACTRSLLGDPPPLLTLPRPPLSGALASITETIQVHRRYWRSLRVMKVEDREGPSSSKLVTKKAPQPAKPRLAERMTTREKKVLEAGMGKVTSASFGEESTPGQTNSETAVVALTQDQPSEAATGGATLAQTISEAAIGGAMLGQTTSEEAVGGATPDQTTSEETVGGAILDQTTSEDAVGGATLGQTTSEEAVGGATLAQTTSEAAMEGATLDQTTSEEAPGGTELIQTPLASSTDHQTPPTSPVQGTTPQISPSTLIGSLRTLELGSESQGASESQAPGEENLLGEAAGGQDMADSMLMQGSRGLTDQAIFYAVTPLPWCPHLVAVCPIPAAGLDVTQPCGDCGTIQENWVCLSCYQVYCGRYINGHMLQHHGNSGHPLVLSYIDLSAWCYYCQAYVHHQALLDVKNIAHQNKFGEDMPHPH
Procedure: as §1

Structure (SMILES) | IC50 [1] | IC50 [2] | IC50 [3]
COc1ccc(-c2ocnc2-c2cc(Br)c(OC)c(OC)c2)cc1OCCCC(=O)NO [4d, N-Hydroxy-4-[1-methoxy-4-(4’-(3’’-bromo-4’’,5’’-dimethoxyphenyl)oxazol-5’-yl)-2-phenoxy]butanamide] | 0.48 ± 0.06 µM | 4 ± 0.1 µM | 13.8 ± 0.2 µM
COc1ccc(-c2ocnc2-c2cc(Br)c(OC)c(OC)c2)cc1OCCCCC(=O)NO [4e, N-Hydroxy-5-[1-methoxy-4-(4’-(3’’-bromo-4’’,5’’-dimethoxyphenyl)oxazol-5’-yl)-2-phenoxy]pentanamide] | 2 ± 0.3 µM | 3.8 ± 0.1 µM | 3.5 ± 0.1 µM
COc1ccc(-c2ocnc2-c2cc(Br)c(OC)c(OC)c2)cc1OCCCCCC(=O)NO [4f, N-Hydroxy-6-[1-methoxy-4-(4’-(3’’-bromo-4’’,5’’-dimethoxyphenyl)oxazol-5’-yl)-2-phenoxy]hexanamide] | 7.1 ± 0.2 µM | 0.49 ± 0.05 µM | 0.32 ± 0.02 µM
